The source of these data is ChEMBL document CHEMBL3856233, “Identification of (R)-(2-Chloro-3-(trifluoromethyl)phenyl)(1-(5-fluoropyridin-2-yl)-4-methyl-6,7-dihydro-1H-imidazo[4,5-c]pyridin-5(4H)-yl)methanone (JNJ 54166060), a Small Molecule Antagonist of the P2X7 receptor” (J Med Chem, 2016).

≈ marks a conversion by molar mass, not a printed value. Where only a bound is given, the exact number is not on record here.

Series [1] in a line: in vitro. The settings on record: human, liver microsomes.
Description: Extraction ratio in human liver microsomes at 1 uM upto 60 mins in presence of NDPH by LC/MS/MS analysis
A short description of series [2]: in vitro. As to conditions: rat, liver microsomes. On the technique in general: Liver microsomes are vesicles of endoplasmic reticulum, rich in cytochrome P450 enzymes.
Description: Extraction ratio in rat liver microsomes at 1 uM upto 60 mins in presence of NDPH by LC/MS/MS analysis
Series [3] addresses T1, P2X purinoceptor 7 (Rattus norvegicus, UniProt Q64663).
T1 sequence (Q64663 whole entry): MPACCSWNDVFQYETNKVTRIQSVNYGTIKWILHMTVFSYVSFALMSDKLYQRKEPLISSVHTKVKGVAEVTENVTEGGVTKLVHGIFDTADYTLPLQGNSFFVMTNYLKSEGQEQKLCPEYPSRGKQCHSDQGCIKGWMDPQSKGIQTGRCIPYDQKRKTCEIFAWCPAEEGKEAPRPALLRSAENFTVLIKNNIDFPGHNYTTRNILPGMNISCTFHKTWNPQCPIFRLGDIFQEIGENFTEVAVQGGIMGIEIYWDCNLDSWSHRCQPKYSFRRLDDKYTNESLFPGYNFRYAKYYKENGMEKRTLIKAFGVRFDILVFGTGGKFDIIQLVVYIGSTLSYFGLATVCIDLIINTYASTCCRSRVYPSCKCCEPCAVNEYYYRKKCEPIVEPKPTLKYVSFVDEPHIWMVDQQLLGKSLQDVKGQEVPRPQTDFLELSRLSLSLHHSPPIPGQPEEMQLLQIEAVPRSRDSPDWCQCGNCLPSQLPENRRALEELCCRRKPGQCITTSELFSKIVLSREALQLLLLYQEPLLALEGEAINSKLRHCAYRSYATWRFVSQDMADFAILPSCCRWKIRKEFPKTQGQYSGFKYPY
The series is described as follows: Antagonist activity at recombinant rat P2X7 receptor expressed in human 1321N1 cells assessed as inhibition of Bz-ATP-induced Ca2+ flux preincubated for 30 mins followed by agonist addition measured after 180 sec by calcium-4 dye based FLIPR assay. The format is cell-based. (In general: Calcium assays in cells follow changes in intracellular calcium, usually with a dye or a luminescent sensor.)

The target in series [4] is T2, P2X purinoceptor 7 (Homo sapiens, UniProt Q99572).
T2 sequence (Q99572 whole entry): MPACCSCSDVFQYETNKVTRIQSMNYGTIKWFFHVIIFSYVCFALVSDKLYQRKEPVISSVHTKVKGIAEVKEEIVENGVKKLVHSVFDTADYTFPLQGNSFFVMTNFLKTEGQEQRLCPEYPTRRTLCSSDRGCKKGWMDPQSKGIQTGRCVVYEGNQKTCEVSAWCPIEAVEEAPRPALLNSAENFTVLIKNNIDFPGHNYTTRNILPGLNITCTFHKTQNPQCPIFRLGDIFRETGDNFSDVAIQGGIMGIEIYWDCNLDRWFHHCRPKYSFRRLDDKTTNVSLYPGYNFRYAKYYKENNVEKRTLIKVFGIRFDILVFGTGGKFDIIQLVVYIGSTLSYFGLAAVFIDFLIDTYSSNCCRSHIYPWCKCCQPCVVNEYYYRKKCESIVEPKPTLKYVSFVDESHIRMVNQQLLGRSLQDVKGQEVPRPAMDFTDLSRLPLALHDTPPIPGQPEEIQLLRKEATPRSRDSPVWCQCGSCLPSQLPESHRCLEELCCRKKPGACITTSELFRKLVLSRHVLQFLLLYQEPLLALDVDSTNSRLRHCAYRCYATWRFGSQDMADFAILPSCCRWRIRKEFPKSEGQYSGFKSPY
Briefly: Antagonist activity at recombinant human P2X7 receptor expressed in human 1321N1 cells assessed as inhibition of Bz-ATP-induced Ca2+ flux preincubated for 30 mins followed by agonist addition measured after 180 sec by calcium-4 dye based FLIPR assay. The format is cell-based.

For series [5], the target named is T3, P2X purinoceptor 7 (Mus musculus, UniProt Q9Z1M0).
T3 sequence (Q9Z1M0 whole entry): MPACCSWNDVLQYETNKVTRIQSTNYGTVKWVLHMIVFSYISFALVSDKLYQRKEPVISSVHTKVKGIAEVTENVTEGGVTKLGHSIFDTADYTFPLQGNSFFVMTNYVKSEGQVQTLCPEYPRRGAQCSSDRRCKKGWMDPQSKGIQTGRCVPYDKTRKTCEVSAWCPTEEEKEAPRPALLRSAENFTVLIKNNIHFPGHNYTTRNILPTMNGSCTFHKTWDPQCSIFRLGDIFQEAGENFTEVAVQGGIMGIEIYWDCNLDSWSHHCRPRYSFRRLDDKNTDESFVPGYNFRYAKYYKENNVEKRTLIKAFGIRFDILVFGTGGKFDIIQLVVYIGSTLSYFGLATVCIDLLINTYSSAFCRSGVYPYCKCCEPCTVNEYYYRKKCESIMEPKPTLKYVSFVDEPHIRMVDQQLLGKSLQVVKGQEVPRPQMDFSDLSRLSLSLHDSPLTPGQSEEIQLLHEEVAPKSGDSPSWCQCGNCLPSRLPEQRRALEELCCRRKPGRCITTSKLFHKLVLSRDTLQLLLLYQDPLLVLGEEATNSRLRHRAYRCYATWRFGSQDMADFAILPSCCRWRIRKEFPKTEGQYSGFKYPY
The series is described as follows: Antagonist activity at recombinant mouse P2X7 receptor expressed in human 1321N1 cells assessed as inhibition of Bz-ATP-induced Ca2+ flux preincubated for 30 mins followed by agonist addition measured after 180 sec by calcium-4 dye based FLIPR assay. The format is cell-based.

Series [6] is described as follows: Protein binding in human plasma at 1 uM after 6 hrs by LC/MS/MS based equilibrium dialysis method. The format is ADME, cell-free. As to conditions: read-out: PPB (converted). (In general: In equilibrium dialysis free small molecules cross a membrane that holds back macromolecules.)
The nature of series [7]: Protein binding in rat plasma at 1 uM after 6 hrs by LC/MS/MS based equilibrium dialysis method. The format is ADME, cell-free. The settings on record: read-out: PPB (converted).
The next series concerns the target Cytochrome P450 2D6 (Homo sapiens, UniProt P10635). Briefly: Inhibition of CYP2D6 in human liver microsomes using dextromethorphan as substrate after 15 mins by LC/MS/MS analysis. The format is ADME.
A further series has as its target Cytochrome P450 2C19 (Homo sapiens, UniProt P33261). Briefly: Inhibition of CYP2C19 in human liver microsomes using S-mephenytoin as substrate after 15 mins by LC/MS/MS analysis. The format is ADME.
The target in a further series is T4, Cytochrome P450 1A2 (Homo sapiens, UniProt P05177).
T4 sequence (P05177 whole entry): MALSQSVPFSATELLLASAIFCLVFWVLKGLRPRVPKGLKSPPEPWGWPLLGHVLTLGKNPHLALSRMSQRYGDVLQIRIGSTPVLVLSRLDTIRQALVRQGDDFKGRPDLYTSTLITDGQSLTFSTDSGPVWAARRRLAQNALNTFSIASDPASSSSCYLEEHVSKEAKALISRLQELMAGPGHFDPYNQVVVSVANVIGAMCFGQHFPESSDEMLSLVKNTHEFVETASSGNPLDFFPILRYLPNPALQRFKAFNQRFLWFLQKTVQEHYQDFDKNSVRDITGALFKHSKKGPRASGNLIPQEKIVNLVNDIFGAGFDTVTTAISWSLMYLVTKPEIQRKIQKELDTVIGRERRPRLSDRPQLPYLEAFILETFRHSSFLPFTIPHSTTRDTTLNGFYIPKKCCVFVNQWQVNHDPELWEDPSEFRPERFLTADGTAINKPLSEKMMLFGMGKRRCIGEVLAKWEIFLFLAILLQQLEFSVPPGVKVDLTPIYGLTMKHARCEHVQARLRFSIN
The series is described as follows: Inhibition of CYP1A2 in human liver microsomes using phenacetin as substrate after 15 mins by LC/MS/MS analysis. The format is ADME.

The next series deals with T5, Cytochrome P450 2C8 (Homo sapiens, UniProt P10632).
T5 sequence (P10632 whole entry): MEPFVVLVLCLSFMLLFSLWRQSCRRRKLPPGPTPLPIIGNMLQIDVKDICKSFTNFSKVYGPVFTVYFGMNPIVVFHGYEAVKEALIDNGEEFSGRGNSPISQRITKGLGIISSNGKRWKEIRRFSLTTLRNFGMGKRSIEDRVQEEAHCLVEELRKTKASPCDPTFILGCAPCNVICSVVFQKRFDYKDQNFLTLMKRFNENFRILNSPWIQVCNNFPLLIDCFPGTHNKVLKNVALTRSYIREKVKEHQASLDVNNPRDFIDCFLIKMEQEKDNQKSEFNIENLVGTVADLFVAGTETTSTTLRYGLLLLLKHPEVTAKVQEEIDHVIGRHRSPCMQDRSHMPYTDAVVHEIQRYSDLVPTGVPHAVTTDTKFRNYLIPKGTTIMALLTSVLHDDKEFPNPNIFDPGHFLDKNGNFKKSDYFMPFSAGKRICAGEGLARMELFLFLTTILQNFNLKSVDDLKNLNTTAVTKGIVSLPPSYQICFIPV
The series is described as follows: Inhibition of CYP2C8 in human liver microsomes using paclitaxel as substrate after 15 mins by LC/MS/MS analysis. The format is ADME.

The next series has as its target Cytochrome P450 2C9 (Homo sapiens, UniProt P11712). Briefly: Inhibition of CYP2C9 in human liver microsomes using diclofenac as substrate after 15 mins by LC/MS/MS analysis. The format is ADME.
Series [8] has as its target Voltage-gated inwardly rectifying potassium channel KCNH2 (Homo sapiens, UniProt Q12809). Briefly: Displacement of [3H]astemizole from human ERG expressed in HEK293 cells by competitive binding assay. The format is cell-based.
Series [9] is described as follows: Solubility of compound in phosphate buffer at pH 2 at room temperature after 3 days.
A short description of series [10]: Solubility of the compound in phosphate buffer at pH 7 at room temperature after 3 days.
Series [11] deals with T6, CYP3A4 (Homo sapiens, UniProt P08684). The series is described as follows: Inhibition of CYP3A4 in human liver microsomes using midazolam as substrate assessed as reduction in 1-OH-midazolam formation at 0.01 uM by LC/MS/MS analysis. As to conditions: probe midazolam.
T6 sequence (P08684 whole entry): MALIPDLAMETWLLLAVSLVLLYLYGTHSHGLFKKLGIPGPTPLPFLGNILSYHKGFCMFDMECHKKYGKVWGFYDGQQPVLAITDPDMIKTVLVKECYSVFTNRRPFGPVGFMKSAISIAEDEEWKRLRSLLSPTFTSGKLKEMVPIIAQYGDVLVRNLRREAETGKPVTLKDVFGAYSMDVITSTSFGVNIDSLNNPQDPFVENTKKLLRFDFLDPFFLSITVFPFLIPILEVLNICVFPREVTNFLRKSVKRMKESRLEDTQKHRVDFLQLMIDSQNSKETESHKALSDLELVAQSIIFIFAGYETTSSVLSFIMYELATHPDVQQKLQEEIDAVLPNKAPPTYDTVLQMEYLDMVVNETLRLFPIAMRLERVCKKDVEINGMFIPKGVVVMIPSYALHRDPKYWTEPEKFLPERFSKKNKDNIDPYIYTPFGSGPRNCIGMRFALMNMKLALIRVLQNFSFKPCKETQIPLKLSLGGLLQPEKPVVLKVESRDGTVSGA
Series [12] deals with T6, CYP3A4. Briefly: Inhibition of CYP3A4 in human liver microsomes using midazolam as substrate assessed as reduction in 1-OH-midazolam formation at 0.02 uM by LC/MS/MS analysis. The settings on record: probe midazolam.
The target of series [13] is T6, CYP3A4. Briefly: Inhibition of CYP3A4 in human liver microsomes using midazolam as substrate assessed as reduction in 4-OH-midazolam formation at 0.01 uM by LC/MS/MS analysis. As to conditions: probe midazolam.
Series [14] deals with T6, CYP3A4. The series is described as follows: Inhibition of CYP3A4 in human liver microsomes using midazolam as substrate assessed as reduction in 4-OH-midazolam formation at 0.02 uM by LC/MS/MS analysis. As to conditions: probe midazolam.

Chain of Voltage-gated inwardly rectifying potassium channel KCNH2 (Q12809 whole entry): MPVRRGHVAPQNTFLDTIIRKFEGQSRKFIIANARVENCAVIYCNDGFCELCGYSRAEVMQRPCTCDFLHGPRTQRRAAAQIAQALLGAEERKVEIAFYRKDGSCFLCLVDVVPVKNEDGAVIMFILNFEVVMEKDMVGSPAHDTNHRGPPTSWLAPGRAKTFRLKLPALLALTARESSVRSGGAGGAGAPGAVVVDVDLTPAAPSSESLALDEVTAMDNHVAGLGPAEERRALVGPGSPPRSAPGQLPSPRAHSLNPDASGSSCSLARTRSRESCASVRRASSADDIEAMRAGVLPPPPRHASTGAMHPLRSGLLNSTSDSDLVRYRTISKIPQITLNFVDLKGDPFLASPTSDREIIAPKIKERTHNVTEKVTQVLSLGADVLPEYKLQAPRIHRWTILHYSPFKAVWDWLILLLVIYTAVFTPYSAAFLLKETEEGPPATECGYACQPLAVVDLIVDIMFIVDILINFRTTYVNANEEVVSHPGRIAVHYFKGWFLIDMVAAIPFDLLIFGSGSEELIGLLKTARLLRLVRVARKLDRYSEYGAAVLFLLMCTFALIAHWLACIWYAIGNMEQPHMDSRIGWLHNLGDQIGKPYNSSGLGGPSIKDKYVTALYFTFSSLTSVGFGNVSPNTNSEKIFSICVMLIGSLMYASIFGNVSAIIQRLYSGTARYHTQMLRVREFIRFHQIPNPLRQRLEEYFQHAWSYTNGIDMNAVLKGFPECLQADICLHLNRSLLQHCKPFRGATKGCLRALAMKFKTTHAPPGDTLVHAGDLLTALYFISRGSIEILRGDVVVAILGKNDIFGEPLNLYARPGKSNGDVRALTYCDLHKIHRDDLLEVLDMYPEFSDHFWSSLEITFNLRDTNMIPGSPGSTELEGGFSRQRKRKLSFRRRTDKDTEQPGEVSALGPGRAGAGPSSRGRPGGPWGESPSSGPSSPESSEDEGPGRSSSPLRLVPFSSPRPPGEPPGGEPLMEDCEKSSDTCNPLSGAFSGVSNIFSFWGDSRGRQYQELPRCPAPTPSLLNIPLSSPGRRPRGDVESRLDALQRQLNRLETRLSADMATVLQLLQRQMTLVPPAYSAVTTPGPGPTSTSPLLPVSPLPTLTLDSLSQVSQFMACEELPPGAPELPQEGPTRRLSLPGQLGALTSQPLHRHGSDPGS
Chain of Cytochrome P450 2C19 (P33261 whole entry): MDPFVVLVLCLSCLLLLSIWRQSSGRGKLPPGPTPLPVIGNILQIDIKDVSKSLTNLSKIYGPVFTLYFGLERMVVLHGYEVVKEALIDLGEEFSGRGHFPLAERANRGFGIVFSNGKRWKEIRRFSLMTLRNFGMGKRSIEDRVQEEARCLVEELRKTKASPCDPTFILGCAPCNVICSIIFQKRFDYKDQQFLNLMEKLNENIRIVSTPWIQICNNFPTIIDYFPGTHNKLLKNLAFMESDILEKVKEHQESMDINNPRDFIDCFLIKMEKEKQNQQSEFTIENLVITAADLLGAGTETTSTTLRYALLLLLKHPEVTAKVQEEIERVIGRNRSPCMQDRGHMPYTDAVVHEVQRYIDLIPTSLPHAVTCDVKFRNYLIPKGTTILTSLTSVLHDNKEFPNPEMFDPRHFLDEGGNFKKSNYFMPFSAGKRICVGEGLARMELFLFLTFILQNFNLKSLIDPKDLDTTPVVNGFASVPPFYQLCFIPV
Chain of Cytochrome P450 2D6 (P10635 whole entry): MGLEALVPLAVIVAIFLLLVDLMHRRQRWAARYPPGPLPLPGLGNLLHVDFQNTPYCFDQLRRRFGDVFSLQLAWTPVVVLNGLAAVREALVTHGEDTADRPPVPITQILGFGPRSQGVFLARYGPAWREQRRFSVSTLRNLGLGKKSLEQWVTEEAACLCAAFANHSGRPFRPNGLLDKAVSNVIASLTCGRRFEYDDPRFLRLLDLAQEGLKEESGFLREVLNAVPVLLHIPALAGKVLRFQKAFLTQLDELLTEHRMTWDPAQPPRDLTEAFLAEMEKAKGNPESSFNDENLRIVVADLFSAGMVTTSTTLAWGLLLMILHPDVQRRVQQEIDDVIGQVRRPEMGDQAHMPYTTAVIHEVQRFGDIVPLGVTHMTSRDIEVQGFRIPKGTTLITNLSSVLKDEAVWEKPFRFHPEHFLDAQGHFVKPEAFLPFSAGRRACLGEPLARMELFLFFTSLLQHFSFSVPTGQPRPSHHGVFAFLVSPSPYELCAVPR
Chain of Cytochrome P450 2C9 (P11712 whole entry): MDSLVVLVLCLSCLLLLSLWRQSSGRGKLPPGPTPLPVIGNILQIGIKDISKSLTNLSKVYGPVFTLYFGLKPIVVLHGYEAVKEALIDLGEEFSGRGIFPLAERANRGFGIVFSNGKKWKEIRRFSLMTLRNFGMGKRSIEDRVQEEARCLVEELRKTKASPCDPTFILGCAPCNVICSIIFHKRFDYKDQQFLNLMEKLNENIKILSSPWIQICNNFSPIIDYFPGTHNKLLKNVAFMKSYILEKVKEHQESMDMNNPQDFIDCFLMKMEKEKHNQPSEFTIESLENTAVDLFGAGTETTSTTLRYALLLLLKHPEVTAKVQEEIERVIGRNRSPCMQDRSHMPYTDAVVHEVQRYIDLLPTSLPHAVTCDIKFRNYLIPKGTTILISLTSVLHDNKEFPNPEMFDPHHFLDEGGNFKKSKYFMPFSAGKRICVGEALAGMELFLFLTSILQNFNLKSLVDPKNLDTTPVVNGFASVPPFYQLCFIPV

Turning to `O=C(c1cccc(C(F)(F)F)c1Cl)N1CCc2c(ncn2-c2ccccc2)C1`, the hepatic extraction ratio at 1 h, 1 µM stood at 0.94 in the series “in vitro [1]” and 0.89 in “in vitro [2]”.

On to `O=C(c1cccc(C(F)(F)F)c1F)N1CCc2c(ncn2-c2ccc(F)cn2)C1`, for which the IC50 (commonly the midpoint of a concentration-inhibition curve) at P2X purinoceptor 7 [3] is > 10000 nM.

On to `O=C(c1cccc(C(F)(F)F)c1Cl)N1CCc2c(ncn2-c2ccccn2)C1`, for which, on P2X purinoceptor 7 [4], the IC50 worked out at 4 nM.

As to `C[C@@H]1c2ncn(-c3ccccn3)c2CCN1C(=O)c1cccc(C(F)(F)F)c1Cl`, the half-maximal inhibitory concentration (IC50) at P2X purinoceptor 7 [5] was 20 nM; against Cytochrome P450 2D6 it was > 10 µM; against Cytochrome P450 2C19, > 10 µM; on Cytochrome P450 1A2 it was > 10 µM; against Cytochrome P450 2C8 it was > 10 µM; against Cytochrome P450 2C9 it was > 10 µM. In addition, in [8], the concentration for half-maximal inhibition (IC50) was > 10 µM. Besides, the fraction unbound at 6 h, 1 µM in series [6] is 0.047; in series [7], 0.026. Also, the solubility – broadly, how much of the substance goes into solution per volume – at 72 h in [9] was > 400 µM; in [10], 20 µM (≈ 8.42 µg/mL).

For the compound `C[C@@H]1c2ncn(-c3ccc(F)cc3)c2CCN1C(=O)c1cccc(C(F)(F)F)c1Cl`, the concentration for half-maximal inhibition (IC50) at P2X purinoceptor 7 [5] was 45 nM. For the same compound, the fraction unbound at 6 h, 1 µM in [6] is 0.04; in [7], 0.025. In addition, the values for the solubility at 72 h in [9] and in series [10] were 165 µM (≈ 72.2 µg/mL) and 14 µM (≈ 6.13 µg/mL), respectively.

Turning to `CC1c2ncn(-c3cnccn3)c2CCN1C(=O)c1cccc(C(F)(F)F)c1Cl` (configuration not stated), the IC50 on P2X purinoceptor 7 [3] worked out at 1230 nM; on P2X purinoceptor 7 [4], 77 nM. Besides, the hepatic extraction ratio at 1 h, 1 µM in “in vitro [1]” came out at 0.77; in “in vitro [2]”, 0.84.

Consider `CC1c2ncn(-c3ncccc3F)c2CCN1C(=O)c1cccc(C(F)(F)F)c1Cl` (configuration not stated), for which the IC50 on P2X purinoceptor 7 [4] came out at 9 nM.

Consider `CC(=O)N1CCN(c2ccc(OCC3COC(Cn4ccnc4)(c4ccc(Cl)cc4Cl)O3)cc2)CC1` (configuration not stated) [KETOCONAZOLE], for which the results for the inhibition at 0.01 µM on CYP3A4 [11] and on CYP3A4 [13] were 53% and 57%, respectively. Also, the inhibition (usually the percentage by which the read-out fell short of the control) at 0.02 µM on CYP3A4 [12] is 70%; on CYP3A4 [14], 74%.

For `C[C@@H]1c2ncn(-c3ncc(F)cn3)c2CCN1C(=O)c1cccc(C(F)(F)F)c1Cl`, the IC50 on P2X purinoceptor 7 [5] was 38 nM; against Cytochrome P450 2C19, 7.8 µM; in [8], > 10 µM. Besides, the values for the fraction unbound at 6 h, 1 µM in series [6] and in series [7] were 0.048 and 0.038, respectively. For the same compound, the solubility at 72 h was > 400 µM in series [9] and 4 µM (≈ 1.76 µg/mL) in [10].

Regarding `O=C(c1cccc(C(F)(F)F)c1Cl)N1CCc2c(ncn2-c2cnccn2)C1`, the 50% inhibitory concentration (IC50) on P2X purinoceptor 7 [4] was 9 nM.
